Experimental findings from the supplement of paper PMC10307832 are described below.

Holding throughout (assay): relative viability (nuclei count vs DMSO), 5 days (fraction); higher = more cells survive
Compound in assay [1]: O=S(=O)(c1ccccc1)N(CC(F)(F)F)c1ccc(C(O)(C(F)(F)F)C(F)(F)F)cc1 + Cc1nc(Nc2ncc(C(=O)Nc3c(C)cccc3Cl)s2)cc(N2CCN(CCO)CC2)n1 [Dasatinib] (partner 0.075 µM)
The procedure, abridged:
(§1)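 One day after seeding in 1536-well plates, lung cancer cell lines were dosed by pin tool. Dosing was either single-drug or a fixed anchor-drug dose plus five library-drug doses (not always all listed) in √10 steps. After 5 days, nuclei were stained in one fix-and-stain step and counted on 4× images, and relative viability is the nuclei count of treated wells over that of vehicle wells, given as the median of duplicate plates.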

Compound in the assay “RO-3306 + Alpelisib”: C1=CC2=C(C=CC(=C2)C=C3C(=O)NC(=NCC4=CC=CS4)S3)N=C1 [RO-3306] + Cc1nc(NC(=O)N2CCC[C@H]2C(N)=O)sc1-c1ccnc(C(C)(C)C(F)(F)F)c1 [Alpelisib] (partner 2 µM)
The procedure, abridged: as §1

Compound in the assay “RO-3306 + Pictilisib”: C1=CC2=C(C=CC(=C2)C=C3C(=O)NC(=NCC4=CC=CS4)S3)N=C1 [RO-3306] + CS(=O)(=O)N1CCN(Cc2cc3nc(-c4cccc5[nH]ncc45)nc(N4CCOCC4)c3s2)CC1 [Pictilisib] (partner 1 µM)
The procedure, abridged:
as §1

Compound in the assay “RO-3306 + Vorinostat”: C1=CC2=C(C=CC(=C2)C=C3C(=O)NC(=NCC4=CC=CS4)S3)N=C1 [RO-3306] + O=C(CCCCCCC(=O)Nc1ccccc1)NO [Vorinostat] (partner 1 µM)
The procedure, abridged: as §1

Consider UMC-11, for which the relative viability in assay [1] (first compound 0.8 µM) was 0.561; in assay [1] (first compound 2.53 µM), 0.531; in assay [1] (first compound 8 µM) it was 0.54; in the assay with RO-3306 + Alpelisib (first compound 0.01 µM), 1.03; with RO-3306 + Alpelisib (first compound 0.03162 µM), 0.753; with RO-3306 + Alpelisib (first compound 0.1 µM) it was 0.948. Further, the relative viability with RO-3306 + Alpelisib (first compound 0.3162 µM) stood at 1.18; with RO-3306 + Alpelisib (first compound 1 µM), 1.12; in the assay with RO-3306 + Pictilisib (first compound 0.01 µM), 1.16; in the assay with RO-3306 + Pictilisib (first compound 0.03162 µM) it was 0.729; with RO-3306 + Pictilisib (first compound 0.1 µM), 0.811; with RO-3306 + Pictilisib (first compound 0.3162 µM), 0.859. In addition, the relative viability amounted to 0.617 in the assay with RO-3306 + Pictilisib (first compound 1 µM); 0.386 with RO-3306 + Vorinostat (first compound 0.01 µM); 0.376 with RO-3306 + Vorinostat (first compound 0.03162 µM); 0.384 with RO-3306 + Vorinostat (first compound 0.1 µM); 0.339 in the assay with RO-3306 + Vorinostat (first compound 0.3162 µM); 0.322 with RO-3306 + Vorinostat (first compound 1 µM).
